According to PMC9078972 (RSC Advances, 2018):
Values after ≈ are worked out from the molar mass of the structure shown.

System: Mycobacterium tuberculosis H37Ra
Test: microbe, parasite or virus in culture
Format: cell-based

CCCCN1CCN(c2nc(=O)c3cc(C(F)(F)F)cc([N+](=O)[O-])c3s2)CC1=O [Compound 1d, 2-(4-Butyl-3-oxopiperazin-1-yl)-8-nitro-6-(trifluoromethyl)-4H-benzo[e][1,3]-thiazin-4-one]
MIC: 0.034 µM (≈ 0.0146 µg/mL)
